Like-named read-outs stand apart in the source and are kept apart here.

Results on seven compounds are retold here after paper PMC3794980, “Identification of Conserved and HLA Promiscuous DENV3 T-Cell Epitopes” (PLoS Neglected Tropical Diseases, 2013).

Targets include DRB1*1101 (Homo sapiens, UniProt P01903+P01911, A100R/A169T/A87E/I96F/K41T/L162R/M171V/P40S/Q125H/Q178H/Q39Y/Q99D/R42S/S66Y/T262R/V115G/W38E); DRB1*1501 (Homo sapiens, UniProt P01903+P01911); DRB1*0701 (Homo sapiens, UniProt P01903+P01911, A100R/A102G/A103Q/D57E/D86V/E43K/F76Y/K127E/L162R/M171V/P40G/Q125H/Q99D/R33Q/R42Y/R54Q/S133A/S66F/T210M/V115G/Y107V/Y59L/Y89S); DRB1*0301 (Homo sapiens, UniProt P01903+P01911, A100K/A102G/A103R/A169T/F55Y/I96L/K41T/L162R/M171V/P40S/Q125H/Q178H/Q39Y/R42S/S66N/T106N/T262R/W38E/Y61H); DRB5*0101 (Homo sapiens, UniProt P01903+Q30154); DRB1*0802 (Homo sapiens, UniProt P01903+P01911, A100R/A103L/A169T/F76Y/H45Y/I96F/K41T/L162R/M171V/P40S/Q125H/Q178H/Q39Y/Q99D/R218S/R42G/S66Y/V115G/W38E); DRB1*1302 (Homo sapiens, UniProt P01903+P01911, A100E/A169T/K41T/L162R/M171V/P40S/Q125H/Q178H/Q39Y/Q99D/R42S/S66N/T262R/V115G/W38E/Y61H); DRB3*0101 (Homo sapiens, UniProt P01903+P79483); DRB1*0404 (Homo sapiens, UniProt P01903+P01911, A100R/A169T/F76Y/I96L/K127E/L162R/M171V/N62H/P40V/Q125Y/R42H/S133A/S149N/S66Y/V209L/W38E); DRB1*0405 (Homo sapiens, UniProt P01903+P01911, A100R/A169T/D86S/F76Y/I96L/K127E/L162R/M171V/N62H/P40V/Q125Y/R42H/S133A/S149N/S66Y/V115G/V209L/W38E); DRB1*0401 (Homo sapiens, UniProt P01903+P01911, A100K/A169T/F76Y/I96L/K127E/L162R/M171V/N62H/P40V/Q125Y/R42H/S133A/S149N/S66Y/V115G/V209L/W38E); DRB1*0101 (Homo sapiens, UniProt P01903+P01911, A100R/D57E/F55L/F60I/F76Y/I96L/L162R/M171V/P40L/Q125E/R42F/V115G/Y59C); DRB1*0901 (Homo sapiens, UniProt P01903+P01911, A100R/A103E/D57H/D86V/F55Y/F60I/F76Y/I96F/K127E/L162R/M171V/P40D/Q125H/Q99R/R33Q/R42F/S133A/S66N/T210M/V115G/W38K/Y107V/Y59G/Y89S); DRB4*0101 (Homo sapiens, UniProt P01903+P13762, G164S).

Holding throughout (experiment): biochemical
Holding throughout (type): binding

Where [1] appears, read: competitive inhibition of radiolabeled standard peptide, DRB1*1302, read-out: Binding Affinity (nM) DRB1*1302.
Setting [2] is: competitive inhibition of radiolabeled standard peptide, DRB1*0901, read-out: Binding Affinity (nM) DRB1*0901.

Sequence of DRB1*0301 (P01903 26-254, other chains not shown): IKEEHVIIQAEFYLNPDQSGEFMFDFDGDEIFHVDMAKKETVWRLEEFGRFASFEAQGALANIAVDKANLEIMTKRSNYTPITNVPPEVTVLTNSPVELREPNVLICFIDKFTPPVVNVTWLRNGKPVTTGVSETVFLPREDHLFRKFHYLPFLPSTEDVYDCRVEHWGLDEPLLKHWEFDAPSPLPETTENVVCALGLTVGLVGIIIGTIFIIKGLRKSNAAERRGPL
Sequence of DRB1*1302 (P01903 26-254 limits assumed, other chains not shown): as the sequence (P01903 26-254, other chains not shown) above
Sequence of DRB1*1101 (P01903 26-254, other chains not shown): as above

For the compound `CC[C@H](C)[C@H](NC(=O)[C@H](Cc1ccc(O)cc1)NC(=O)CNC(=O)[C@H](CC(C)C)NC(=O)[C@H](CCCCN)NC(=O)[C@H](Cc1c[nH]cn1)NC(=O)[C@H](CC(C)C)NC(=O)CNC(=O)[C@H](CCC(=O)O)NC(=O)CNC(=O)[C@H](CCC(=O)O)NC(=O)[C@@H](NC(=O)CNC(=O)[C@H](CO)NC(=O)[C@H](Cc1ccc(O)cc1)NC(=O)[C@H](CO)NC(=O)[C@@H](N)CC(N)=O)C(C)C)C(=O)O` [NS5 501-517], the IC50 against DRB1*1101 turned out to be 8180 nM; against DRB1*1501, 3050 nM; against DRB1*0701 it was 18 nM; against DRB1*0301 it was 4420 nM; against DRB5*0101, 1120 nM; at DRB1*0802, 836 nM. Further, the IC50 on DRB1*1302 (setting [1]) amounted to 4990 nM; against DRB3*0101, 2960 nM; on DRB1*0404, 4370 nM; at DRB1*0405, 2400 nM; at DRB1*0401, 74 nM; on DRB1*0101, 7 nM.

As to `CSCC[C@H](NC(=O)[C@@H](NC(=O)[C@H](Cc1ccccc1)NC(=O)[C@H](CCCNC(=N)N)NC(=O)[C@H](CC(N)=O)NC(=O)[C@H](CC(C)C)NC(=O)[C@H](CC(C)C)NC(=O)[C@H](CC(C)C)NC(=O)[C@H](CCCNC(=N)N)NC(=O)[C@H](CO)NC(=O)[C@@H](NC(=O)[C@@H](N)CCSC)C(C)C)[C@@H](C)O)C(=O)N[C@H](C(=O)N[C@@H](Cc1c[nH]cn1)C(=O)N[C@@H](CCCNC(=N)N)C(=O)N[C@@H](CCCNC(=N)N)C(=O)O)[C@@H](C)O` [NS5 233-248], the IC50 on DRB1*1101 came to 16 nM; on DRB1*0901 (setting [2]), 569 nM; against DRB1*1501 it was 307 nM; at DRB1*0701 it was 97 nM; against DRB1*0301, 327 nM; on DRB1*0802 it was 159 nM. Also, the IC50 at DRB1*1302 (setting [1]) is 34 nM; on DRB3*0101 it was 2240 nM; on DRB4*0101, 617 nM; at DRB1*0404 it was 1070 nM; against DRB1*0405 it was 699 nM; against DRB1*0401, 57 nM. The IC50 on DRB1*0101 was 108 nM.

As for `CC(C)C[C@H](NC(=O)[C@@H](NC(=O)CNC(=O)[C@H](CC(N)=O)NC(=O)[C@H](CO)NC(=O)[C@H](Cc1c[nH]c2ccccc12)NC(=O)[C@H](CC(C)C)NC(=O)[C@@H](NC(=O)[C@H](Cc1c[nH]cn1)NC(=O)[C@H](CO)NC(=O)[C@H](CCCCN)NC(=O)[C@@H]1CCCN1C(=O)[C@@H](N)Cc1c[nH]c2ccccc12)[C@@H](C)O)C(C)C)C(=O)N[C@@H](CCC(=O)O)C(=O)N[C@@H](CO)C(=O)O` [NS1 225-239], the IC50 stood at 12900 nM against DRB1*1101; 9390 nM at DRB1*0901 (competitive inhibition of radiolabeled standard peptide, '-' distinct from ND, read-out: Binding Affinity (nM) DRB1*0901); 4120 nM against DRB1*1501; 5690 nM against DRB1*0701; 520 nM at DRB1*0301; 4830 nM on DRB1*0802. The IC50 at DRB1*1302 (competitive inhibition of radiolabeled standard peptide, '-' distinct from ND, read-out: Binding Affinity (nM) DRB1*1302) came to 59 nM; against DRB4*0101 it was 6540 nM; against DRB1*0404, 3930 nM; against DRB1*0405, 4420 nM; at DRB1*0401 it was 322 nM; against DRB1*0101 it was 3920 nM.

Turning to `CC[C@H](C)[C@H](NC(=O)[C@H](CC(N)=O)NC(=O)CNC(=O)[C@@H](NC(=O)CNC(=O)[C@H](CC(N)=O)NC(=O)[C@@H](N)CO)[C@@H](C)O)C(=O)N[C@H](C(=O)N[C@@H](CO)C(=O)N[C@@H](CO)C(=O)N[C@H](C(=O)N[C@@H](CC(N)=O)C(=O)N[C@@H](CCSC)C(=O)N[C@H](C(=O)N[C@@H](CO)C(=O)N[C@@H](CCCNC(=N)N)C(=O)N[C@@H](CC(C)C)C(=O)O)C(C)C)C(C)C)C(C)C` [NS5 221-237], the IC50 against DRB1*1101 was 31 nM; at DRB1*0901 (setting [2]), 45 nM; on DRB1*1501, 20 nM; against DRB1*0701, 21 nM; on DRB1*0301 it was 15 nM; on DRB1*0802 it was 5.8 nM. Besides, the IC50 at DRB1*1302 (setting [1]) came to 65 nM; at DRB3*0101, 6300 nM; at DRB4*0101 it was 60 nM; against DRB1*0404 it was 84 nM; on DRB1*0405, 25 nM; against DRB1*0401, 1.1 nM. Moreover, at DRB1*0101, the IC50 is 4 nM.

Regarding `CC[C@H](C)[C@H](NC(=O)[C@H](C)NC(=O)[C@H](CC(N)=O)NC(=O)[C@H](CO)NC(=O)[C@H](C)NC(=O)[C@H](CC(C)C)NC(=O)[C@H](CCCNC(=N)N)NC(=O)[C@H](CC(C)C)NC(=O)[C@H](CC(=O)O)NC(=O)[C@H](CCCNC(=N)N)NC(=O)[C@@H](N)CCCNC(=N)N)C(=O)N[C@@H](CS)C(=O)N[C@@H](CO)C(=O)N[C@@H](C)C(=O)N[C@H](C(=O)N1CCC[C@H]1C(=O)N[C@H](C(=O)O)C(C)C)C(C)C` [NS5 769-785], the IC50 is 79 nM at DRB1*1101; 61 nM at DRB1*0901 (setting [2]); 21 nM at DRB1*1501; 121 nM against DRB1*0701; 409 nM against DRB1*0301; 28 nM against DRB1*0802. The IC50 on DRB1*1302 (setting [1]) came out at 4.5 nM; on DRB4*0101 it was 212 nM; on DRB1*0404 it was 93 nM; against DRB1*0405, 16 nM; on DRB1*0401, 3.6 nM; against DRB1*0101, 28 nM.

Take `CC[C@H](C)[C@H](NC(=O)[C@H](C)NC(=O)[C@H](CC(N)=O)NC(=O)[C@H](CO)NC(=O)[C@H](C)NC(=O)[C@H](CC(C)C)NC(=O)[C@H](CCCNC(=N)N)NC(=O)[C@H](CC(C)C)NC(=O)[C@H](CC(=O)O)NC(=O)[C@H](CCCNC(=N)N)NC(=O)[C@H](CCCNC(=N)N)NC(=O)[C@H](Cc1c[nH]cn1)NC(=O)[C@H](Cc1ccccc1)NC(=O)[C@H](Cc1ccc(O)cc1)NC(=O)[C@@H](N)CCSC)C(=O)O` [NS5 765-779]: the IC50 amounted to 17 nM on DRB1*1101; 61 nM at DRB1*0901; 118 nM on DRB1*1501; 18 nM against DRB1*0701; 1280 nM at DRB1*0301; 726 nM against DRB5*0101. In addition, the IC50 at DRB1*0802 turned out to be 7.8 nM; against DRB1*1302, 4.9 nM; on DRB1*0404, 34 nM; against DRB1*0405 it was 18 nM; at DRB1*0401, 4.7 nM; at DRB1*0101, 41 nM.

With `CC[C@H](C)[C@H](NC(=O)[C@H](C)NC(=O)[C@H](C)NC(=O)[C@H](C)NC(=O)[C@@H](N)CCC(=O)O)C(=O)N[C@@H](Cc1ccccc1)C(=O)N[C@@H](CCSC)C(=O)N[C@H](C(=O)N[C@@H](C)C(=O)N[C@H](C(=O)N1CCC[C@H]1C(=O)N1CCC[C@H]1C(=O)NCC(=O)N[C@H](C(=O)N[C@@H](C)C(=O)O)[C@@H](C)O)[C@@H](C)O)[C@@H](C)O` [NS3 309-323], the IC50 against DRB1*1101 came out at 93 nM; at DRB1*0901 it was 129 nM; against DRB1*1501, 363 nM; on DRB1*0701, 48 nM; on DRB5*0101, 2520 nM; at DRB1*0802, 31 nM. The IC50 on DRB1*1302 was 2640 nM; against DRB3*0101 it was 11700 nM; at DRB4*0101, 9.2 nM; at DRB1*0404 it was 350 nM; on DRB1*0405, 32 nM; at DRB1*0401 it was 2.4 nM. In addition, at DRB1*0101, the IC50 was found to be 27 nM.
